The source made the active and inactive calls. The calls are words filed in the database; no cut-off is given here.
What was measured:
Jurkat [1] = experiment: Antiproliferative activity against human Jurkat cells at 5 to 100 uM incubated for 48 hrs by MTS assay; type: functional, cell-based
Jurkat [2] = experiment: Induction of apoptosis in human Jurkat cells assessed as downregulation in BCL2 protein expression at 10 uM incubated for 48 hrs by Western blot analysis; type: functional, cell-based
Jurkat [3] = experiment: Induction of apoptosis in human Jurkat cells assessed as early apoptotic cells at 10 uM incubated 48 hrs by annexin-V and 7AAD staining based flow cytometry (reference value: 3.16%); type: functional
Jurkat [4] = experiment: Induction of apoptosis in human Jurkat cells assessed as necrotic cells at 10 uM incubated 48 hrs by annexin-V and 7AAD staining based flow cytometry (reference value: 1.16%); type: functional
Jurkat [5] = experiment: Induction of apoptosis in human Jurkat cells assessed as increase in PARP cleavage at 10 uM incubated for 48 hrs by Western blot analysis; type: functional, cell-based
Jurkat [6] = experiment: Induction of cell cycle arrest in human Jurkat cells assessed as accumulation at S phase at 10 uM incubated for 48 hrs by PI staining based cell counting method (reference value: 12.2%); type: functional
Jurkat [7] = experiment: Induction of mitochondrial membrane potential loss in human Jurkat cells assessed as membrane potential at 10 uM incubated for 48 hrs by TMRM staining based flow cytometric analysis (reference value: 94.1%); type: functional
Jurkat [8] = experiment: Induction of apoptosis in human Jurkat cells assessed as viable cells at 10 uM incubated 48 hrs by annexin-V and 7AAD staining based flow cytometry (reference value: 91.9%); type: functional; conditions: read-out: Activity
Jurkat [9] = experiment: Induction of apoptosis in human Jurkat cells at 10 uM incubated for 24 to 48 hrs by phase contrast microscopic method; type: functional, cell-based
Jurkat [10] = experiment: Induction of apoptosis in human Jurkat cells assessed as late apoptotic cells at 10 uM incubated 48 hrs by annexin-V and 7AAD staining based flow cytometry (reference value: 3.78%); type: functional
Jurkat [11] = experiment: Induction of cell cycle arrest in human Jurkat cells assessed as accumulation at G2/M phase at 10 uM incubated for 48 hrs by PI staining based cell counting method (reference value: 16.7%); type: functional
Jurkat [12] = experiment: Induction of cell cycle arrest in human Jurkat cells assessed as accumulation at G1 phase at 10 uM incubated for 48 hrs by PI staining based cell counting method (reference value: 71.4%); type: functional

COc1c(CC=C(C)C)c(O)cc2oc(=O)c3c4cc(O)c5c(c4oc3c12)C=CC(C)(C)O5
Activity (Jurkat [1]): Active

COc1c(C/C=C(\C)CCC=C(C)C)c(O)cc(O)c1-c1oc2c3c(c(O)cc2c1C=O)OC(C)(C)C=C3
Activity (Jurkat [1]): Active

COc1c(CC=C(C)C)c(O)cc2c1[C@@H]1Oc3c(ccc(O)c3CC=C(C)C)[C@@H]1CO2
Activity (Jurkat [1]): Active

COc1cc2c(cc1O)OC1c3c(OC)cc(O)c(C/C=C(\C)CCC=C(C)C)c3OCC21 (stereo unspecified)
Activity (Jurkat [2]): Active | Activity (Jurkat [3]): 11.3% | Activity (Jurkat [4]): 4.43% | Activity (Jurkat [5]): Active | Activity (Jurkat [6]): 8.78% | Activity (Jurkat [7]): 46.8% | viability at 10 µM (Jurkat [8]): 43.9% | Activity (Jurkat [1]): Active | Activity (Jurkat [9]): Active | Activity (Jurkat [10]): 40.4% | Activity (Jurkat [11]): 9.3% | Activity (Jurkat [12]): 82.1%

COc1c(C/C=C(\C)CCC=C(C)C)c(O)cc2c1[C@@H]1Oc3c(cc(O)c4c3C=CC(C)(C)O4)[C@@H]1CO2
Activity (Jurkat [1]): Active

COc1c(CC=C(C)C)c(O)cc2c1[C@@H]1Oc3c(cc(O)c4c3C=CC(C)(C)O4)[C@@H]1CO2
Activity (Jurkat [1]): Active

COc1c(CC=C(C)C)c(O)cc2c1[C@@H]1Oc3c(ccc4c3C=CC(C)(C)O4)[C@@H]1CO2
Activity (Jurkat [1]): Active

COc1c(CC=C(C)C)c(O)cc2oc(=O)c3c4cc(O)c(O)c(CC=C(C)C)c4oc3c12
Activity (Jurkat [2]): Active | Activity (Jurkat [3]): 12.3% | Activity (Jurkat [4]): 3.4% | Activity (Jurkat [5]): Active | Activity (Jurkat [6]): 10.9% | Activity (Jurkat [7]): 12.9% | viability at 10 µM (Jurkat [8]): 37.6% | Activity (Jurkat [1]): Active | Activity (Jurkat [9]): Active | Activity (Jurkat [10]): 46.7% | Activity (Jurkat [11]): 7.05% | Activity (Jurkat [12]): 82.3%

COc1c(CC=C(C)C)c(O)cc(O)c1-c1oc2c3c(c(O)cc2c1C=O)OC(C)(C)C=C3
Activity (Jurkat [1]): Active

— ChEMBL document CHEMBL4414640, “Antiproliferative Pterocarpans and Coumestans from Lespedeza bicolor” (2019)
